The values below come from ChEMBL document CHEMBL1128102, “1,5-Benzodiazepines as CCK-B antagonists. Effect of halogen substitution at the benzo-fused ring on potency and selectivity” (Bioorg Med Chem Lett, 1995).

The target of test [1] is Cholecystokinin receptor (Homo sapiens) (UniProt P32239+P32238). The test is described as follows: Selectivity was determined as the ratio for binding affinities of CCK-A receptor to CCK-B receptor. The class given is protein assay.
In test [2] the target is T1, Cholecystokinin receptor type A (Rattus norvegicus, UniProt P30551).
T1 sequence (P30551 whole entry): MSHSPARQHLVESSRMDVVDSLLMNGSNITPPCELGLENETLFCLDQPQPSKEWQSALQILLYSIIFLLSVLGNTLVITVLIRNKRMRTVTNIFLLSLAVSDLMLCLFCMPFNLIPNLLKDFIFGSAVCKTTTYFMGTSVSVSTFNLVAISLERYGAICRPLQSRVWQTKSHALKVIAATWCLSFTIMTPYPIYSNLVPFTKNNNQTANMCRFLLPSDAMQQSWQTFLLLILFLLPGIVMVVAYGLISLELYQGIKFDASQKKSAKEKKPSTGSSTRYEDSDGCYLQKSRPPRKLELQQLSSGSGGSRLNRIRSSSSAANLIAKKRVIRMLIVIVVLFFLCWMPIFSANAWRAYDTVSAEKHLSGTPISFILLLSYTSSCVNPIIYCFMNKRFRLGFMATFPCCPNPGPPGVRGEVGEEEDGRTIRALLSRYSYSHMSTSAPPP
The test is described as follows: Binding affinity was measured by its ability to displace [3H]CCK-8S from CCK-A receptor in rat pancreas.

Sequence of Cholecystokinin receptor (Homo sapiens) (P32238 whole entry, looked up): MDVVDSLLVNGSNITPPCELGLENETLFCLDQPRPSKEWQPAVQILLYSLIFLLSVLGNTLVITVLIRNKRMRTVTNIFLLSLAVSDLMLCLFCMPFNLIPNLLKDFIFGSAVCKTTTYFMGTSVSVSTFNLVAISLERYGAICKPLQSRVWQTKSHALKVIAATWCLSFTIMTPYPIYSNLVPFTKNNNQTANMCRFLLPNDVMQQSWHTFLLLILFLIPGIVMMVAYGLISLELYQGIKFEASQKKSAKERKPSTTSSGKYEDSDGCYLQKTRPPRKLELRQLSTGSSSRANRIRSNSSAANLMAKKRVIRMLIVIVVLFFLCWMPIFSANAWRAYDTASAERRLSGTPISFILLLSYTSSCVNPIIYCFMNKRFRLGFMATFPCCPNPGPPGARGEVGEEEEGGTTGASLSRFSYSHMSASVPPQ
Sequence of Cholecystokinin receptor (Homo sapiens) (P32239 whole entry, looked up): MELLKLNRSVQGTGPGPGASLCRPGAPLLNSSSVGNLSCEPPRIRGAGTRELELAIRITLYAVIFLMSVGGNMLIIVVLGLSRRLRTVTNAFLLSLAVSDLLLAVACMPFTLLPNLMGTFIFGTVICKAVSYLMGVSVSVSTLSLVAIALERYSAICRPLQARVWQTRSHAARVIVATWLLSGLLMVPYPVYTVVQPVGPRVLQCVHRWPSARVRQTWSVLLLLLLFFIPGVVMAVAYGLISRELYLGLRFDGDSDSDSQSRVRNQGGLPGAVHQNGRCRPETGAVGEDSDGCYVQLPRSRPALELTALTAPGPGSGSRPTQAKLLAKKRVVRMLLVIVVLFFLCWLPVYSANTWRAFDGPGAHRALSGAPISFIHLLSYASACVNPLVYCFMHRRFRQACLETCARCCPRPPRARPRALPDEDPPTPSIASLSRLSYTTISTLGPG

Turning to `CC(C)CCN1C(=O)C(NC(=O)Nc2ccccc2)C(=O)N(c2ccccc2)c2ccc(F)cc21` (stereo not given), the Ratio in test [1] was over 110. This molecule showed a Ki in test [2] of 8.91 nM.
For `CC(C)CCN1C(=O)C(NC(=O)Nc2ccccc2)C(=O)N(c2ccccc2)c2cc(Cl)c(Cl)cc21` (stereo not given) the same measures were 162 and 9.77 nM.
For `CC(C)CCN1C(=O)C(NC(=O)Nc2ccccc2)C(=O)N(c2ccccc2)c2cc(F)ccc21` (stereo not given) the same measures were 49 and 4.57 nM.
In the same order, the values of `CC(C)CCN1C(=O)C(NC(=O)Nc2ccccc2)C(=O)N(c2ccccc2)c2ccc(Cl)cc21` (stereo not given) are 23 and 41.7 nM.
Regarding `CC(C)CCN1C(=O)C(NC(=O)Nc2ccccc2)C(=O)N(c2ccccc2)c2cc(Cl)ccc21` (stereo not given), the Ratio in test [1] was 195. Also, in test [2], the Ki is 4.9 nM.
